Data as given in US7700584B2 (Hangzhou Minsheng Pharmaceuticals Co., Ltd., priority 2004, dated 2010).
Values after ≈ are worked out from the molar mass of the structure shown. Counter-ions that a name gives are not always drawn. Like-named read-outs stand apart in the source and are kept apart here.

Key:
[1] = system: LLC mouse Lewis lung carcinoma; experiment: In vitro anti-tumor IC50 (MTT), LLC; format: cell-based; conditions: Mus musculus, Lewis lung carcinoma, Table 4; read-out: IC50 (ug/ml) against tumor cell lines, LLC
Protocol: (§1) (1) Single cell suspension was seeded into 96-well plates (the cells was diluted in the PRMI-1640 minimum medium to 3×10^4 cells/ml, […] diluted cells/well). […] The experiments were performed in quadruplicate.
(§2) (2) The medium was removed. Solutions of the anti-tumor agents (50 compounds) were prepared in a freshly prepared medium at serial concentrations. […] of the solution was added into each well. Incubation was continued for 48 hours.
(§3) (3) 20 ug of 2 mg/ml MTT was added into each well, and incubated for 4 hours.
(§4) (4) The medium was removed from the well. The microplates were swiftly turned down to throw-off the medium. […] of DMSO was added into each well, and vortexed at room temperature for 10 minutes.
(§5) (5) OD value (λ=570 nm) was measured with an Enzyme-Linked Detector.
(§6) (6) The graph of cell vitality was plotted, and IC50 was calculated.

[2] = system: A-549 human lung adenocarcinoma; experiment: In vitro anti-tumor IC50 (MTT), A-549; format: cell-based; conditions: Homo sapiens, A549, Table 4; read-out: IC50 (ug/ml) against tumor cell lines, A-549
Protocol: as §1, §2, §3, §4, §5, §6

[3] = system: Bel-7402 human hepatic carcinoma; experiment: In vitro anti-tumor IC50 (MTT), Bel-7402; format: cell-based; conditions: Homo sapiens, Bel-7402, Table 4; read-out: IC50 (ug/ml) against tumor cell lines, Bel-7402
Protocol: as §1, §2, §3, §4, §5, §6

[4] = system: SMMC-7721 human hepatic carcinoma; experiment: In vitro anti-tumor IC50 (MTT), SMMC-7721; format: cell-based; conditions: Homo sapiens, SMMC-7721, Table 4; read-out: IC50 (ug/ml) against tumor cell lines, SMMC-7721
Protocol: as §1, §2, §3, §4, §5, §6

[5] = system: mouse grafted uterine cervix cancer U14; experiment: Activity against mouse grafted uterine cervix cancer U14; format: in vivo, Kunming mice; conditions: for Tumor weight: X ± SD, n = 10; for inhibitory effect against mouse grafted uterine cervix cancer U14 (in words): all the three concentrations, i.v., female mice
Protocol: (§7) The experiments were performed according to “Guideline for New Drugs (Western medicines) in Pre-clinical Stages” issued by Bureau of Drug Policy & Administration of the People's Republic of China, and the relevant methods in “Methodology of Pharmaceutical Experiments”, Xu Shuyun et al. ed. 120 male Kunming mice weighting […] were allowed to grow 3 days. No abnormality was observed. The mice were routinely inoculated in oxter with mouse sarcoma S-180, and weighted 4 hrs. after inoculation. The mice were randomly divided into 12 groups, 10 mice/group. Group 1 was given 0.3 ml of physiological saline as negative control; Group 2 was given 5-FU as positive control, 0.6 mg/mouse; Group 3 was given hydroxycamptothecine as positive control, 0.02 mg/mouse. Groups 4, 5 and 6 were injected with 10% Compound 6, 0.4 ml/mouse, 0.2 ml/mouse, and 0.1 ml/mouse, respectively. Groups 7, 8 and 9 were injected with 10% Compound 8, 0.4 ml/mouse, 0.2 ml/mouse, and 0.1 ml/mouse, respectively. Groups 10, 11, and 12 were injected with 10% Compound 20, 0.4 ml/mouse, 0.2 ml/mouse, and 0.1 ml/mouse, respectively. The tested compounds were administered on the next day after inoculation, once a day on alternate days, 6 doses totally administered. On the next day after the end dose, the mice were weighed and sacrificed. After the tumor was excised, body weight and tumor weight were recorded. The tumor inhibition rate was calculated based on the following formula: [(average tumor weight of the control groups−average tumor weight of the experimental groups)/average tumor weight of the control groups]×100%. The data was processed statistically. The above experiments were repeated three times.
The experiments were identical with the experiments for activity against mouse grafted sarcoma S-180, except the following:
(1) the tumor cell line inoculated was mouse grafted uterine cervix cancer U14;
(2) all the mice were female.

[6] = system: mouse grafted sarcoma S-180; experiment: Activity against mouse grafted sarcoma S-180; format: in vivo, Kunming mice; conditions: for Tumor weight: X ± SD, n = 10; for inhibitory effect against mouse sarcoma S-180 (in words): three different concentrations (40, 20, 10 mg/kg), i.v.
Protocol: (1) Experimental animals: Kunming mice weighting 18-22 g;
(2) 100 mg/ml solutions of the 3 compounds were prepared, respectively, in water for injection (1% surface surfactant was added into the solution of Compound 6). 5-FU and camptothecine, 30 mg/kg and 1 mg/kg, respectively, were used as positive controls;
3. Route of Administration: Intravenous Injection.
as §7

[7] = system: influenza A virus (Jifang 90-15); experiment: microbe, parasite or virus in culture; format: cell-based
[8] = system: oral membrane herpes virus (VSV); format: cell-based
[9] = Solubility in water (observation); format: physicochemical
[10] = U14, first experiment, 10 mg/kg
[11] = U14, first experiment, 20 mg/kg
[12] = U14, first experiment, 40 mg/kg
[13] = U14, second experiment, 10 mg/kg
[14] = U14, second experiment, 20 mg/kg
[15] = U14, second experiment, 40 mg/kg
[16] = U14, third experiment, 10 mg/kg
[17] = U14, third experiment, 20 mg/kg
[18] = U14, third experiment, 40 mg/kg
[19] = S-180, first experiment, 10 mg/kg i.v., 6 doses
[20] = S-180, first experiment, 20 mg/kg i.v., 6 doses
[21] = S-180, first experiment, 40 mg/kg i.v., 6 doses
[22] = S-180, second experiment, 10 mg/kg i.v., 6 doses
[23] = S-180, second experiment, 20 mg/kg i.v., 6 doses
[24] = S-180, second experiment, 40 mg/kg i.v., 6 doses

With CC(C)C1CC23OC1(O)C/C(=C\Nc1ccc(O)cc1)C2CCC3C (centres unmarked) [Compound 5, Curcumol p-hydroxy aniline] the IC50 [1] was 3.6 µg/mL (≈ 10.5 µM), the IC50 [2] was 2 µg/mL (≈ 5.82 µM) and the IC50 [3] was 0.9 µg/mL (≈ 2.62 µM). It also gave an IC50 [4] of 4.3 µg/mL (≈ 12.5 µM).

With CC(C)C1CC23OC1(O)CC(=CN1CCNCC1)C2CCC3C (centres unmarked) [Compound 8, Curcumol piperazine hydrochloride] the “Inhibition rate (%)” value [5, 10] was 35.6%, the “Tumor weight” value [5, 10] was 2.26 ± 0.33 g and the “Inhibition rate (%)” value [5, 11] was 54.4%. The “Tumor weight” value [5, 11] was 1.60 ± 0.39 g, the “Inhibition rate (%)” value [5, 12] was 67.2% and the “Tumor weight” value [5, 12] was 1.15 ± 0.36 g. The “Inhibition rate (%)” value [5, 13] was 38.8%, the “Tumor weight” value [5, 13] was 2.08 ± 0.33 g and the “Inhibition rate (%)” value [5, 14] was 55.6%. For the same compound, the “Tumor weight” value [5, 14] was 1.51 ± 0.39 g, the “Inhibition rate (%)” value [5, 15] was 64.7% and the “Tumor weight” value [5, 15] was 1.20 ± 0.36 g. For the same compound, the “Inhibition rate (%)” value [5, 16] was 40.1%, the “Tumor weight” value [5, 16] was 2.14 ± 0.33 g and the “Inhibition rate (%)” value [5, 17] was 54.4%. The “Tumor weight” value [5, 17] was 1.65 ± 0.39 g, the “Inhibition rate (%)” value [5, 18] was 65.5% and the “Tumor weight” value [5, 18] was 1.25 ± 0.36 g. For the same compound, the “inhibitory effect against mouse grafted uterine cervix cancer U14 (in words)” value [5] was “good inhibitory effect”, the “inhibition rate against mouse grafted uterine cervix cancer U14” value ([5]; concentration above 40 mg/kg) was “above 60%” and the “Average weight (g)-after administration” value ([5]; mouse, in vivo, 10 mg/kg) was 21.5 g. For the same compound, the “Average weight (g)-after administration” value ([5]; mouse, in vivo, 20 mg/kg) was 21.9 g, the “Average weight(g)-after administration” value ([5]; mouse, in vivo, 20 mg/kg) was 20.9 g and the “Average weight (g)-after administration” value ([5]; mouse, in vivo, 40 mg/kg) was 21.3 g. The “Inhibition rate (%)” value [6, 19] was 16%, the “Tumor weight” value [6, 19] was 2.1 ± 0.42 g and the “Inhibition rate (%)” value [6, 20] was 20%. The “Tumor weight” value [6, 20] was 2.0 ± 0.40 g, the “Inhibition rate (%)” value [6, 21] was 48% and the “Tumor weight” value [6, 21] was 1.3 ± 0.24 g. The “Inhibition rate (%)” value [6, 22] was 15.4%, the “Tumor weight” value [6, 22] was 2.2 ± 0.31 g and the “Inhibition rate (%)” value [6, 23] was 15.4%. The “Tumor weight” value [6, 23] was 2.2 ± 0.29 g, the “Inhibition rate (%)” value [6, 24] was 46.1% and the “Tumor weight” value [6, 24] was 1.4 ± 0.37 g. The “Average weight (g)-after administration” value ([6]; mouse, in vivo, iv, 10 mg/kg) was 22.5 g, the “Average weight(g)-after administration” value ([6]; mouse, in vivo, iv, 10 mg/kg) was 23.5 g and the “Average weight (g)-after administration” value ([6]; mouse, in vivo, iv, 20 mg/kg) was 21.8 g. For the same compound, the “Average weight(g)-after administration” value ([6]; mouse, in vivo, iv, 20 mg/kg) was 21.8 g, the “Average weight (g)-after administration” value ([6]; mouse, in vivo, iv, 40 mg/kg) was 23.0 g and the “Average weight(g)-after administration” value ([6]; mouse, in vivo, iv, 40 mg/kg) was 23.0 g. The “inhibitory effect against mouse sarcoma S-180 (in words)” value [6] was “had the inhibitory effect only when the concentration reached 40 mg/kg”.

In the case of C=C1CC2(OS(=O)(=O)[O-])OC3(CC2C(C)C)C(C)CCC13.[Na+] (centres unmarked) [Compound 21, Curcumol sodium sulfonate], the IC50 ([7]; Influenza A virus, CPE in MDCK cells) was 47.7 µg/mL, the “SI, influenza A virus” value ([7]; SI = TC50/IC50) was 20.96 and the “activity against VSV (in words)” value ([8]; 200 μg/ml) was “had the activity against VSV”. The “activity against VSV (in words)” value ([8]; first round of the primary screening, 13 samples) was “some activities against VSV”, the “Average weight(g)-after administration” value [5, 10] was 22.1 g and the “Inhibition rate (%)” value [5, 10] was 52.1%. The “Tumor weight” value [5, 10] was 1.68 ± 0.29 g, the “Average weight(g)-after administration” value [5, 11] was 21.0 g and the “Inhibition rate (%)” value [5, 11] was 56.7%. For the same compound, the “Tumor weight” value [5, 11] was 1.52 ± 0.41 g, the “Average weight(g)-after administration” value [5, 12] was 21.1 g and the “Inhibition rate (%)” value [5, 12] was 71.8%. The “Tumor weight” value [5, 12] was 0.99 ± 0.31 g, the “Average weight(g)-after administration” value [5, 13] was 22.5 g and the “Inhibition rate (%)” value [5, 13] was 53.2%. For the same compound, the “Tumor weight” value [5, 13] was 1.59 ± 0.29 g, the “Average weight(g)-after administration” value [5, 14] was 21.1 g and the “Inhibition rate (%)” value [5, 14] was 57.1%. The “Tumor weight” value [5, 14] was 1.46 ± 0.41 g, the “Average weight(g)-after administration” value [5, 15] was 21.0 g and the “Inhibition rate (%)” value [5, 15] was 73.8%. The “Tumor weight” value [5, 15] was 0.89 ± 0.31 g, the “Average weight (g)-after administration” value [5, 16] was 22.0 g and the “Inhibition rate (%)” value [5, 16] was 54.7%. For the same compound, the “Tumor weight” value [5, 16] was 1.64 ± 0.29 g, the “Average weight (g)-after administration” value [5, 17] was 21.0 g and the “Inhibition rate (%)” value [5, 17] was 58.3%. The “Tumor weight” value [5, 17] was 1.51 ± 0.41 g, the “Average weight (g)-after administration” value [5, 18] was 20.1 g and the “Inhibition rate (%)” value [5, 18] was 73.7%. For the same compound, the “Tumor weight” value [5, 18] was 0.95 ± 0.31 g, the “inhibitory effect against mouse grafted uterine cervix cancer U14 (in words)” value [5] was “good inhibitory effect” and the “Average weight (g)-after administration” value [6, 19] was 22.6 g. The “Tumor weight” value [6, 19] was 2.6 ± 0.23 g, the “Average weight (g)-after administration” value [6, 20] was 22.5 g and the “Inhibition rate (%)” value [6, 20] was 4%. For the same compound, the “Tumor weight” value [6, 20] was 2.4 ± 0.43 g, the “Average weight (g)-after administration” value [6, 21] was 23.1 g and the “Inhibition rate (%)” value [6, 21] was 8%. The “Tumor weight” value [6, 21] was 2.3 ± 0.31 g, the “Average weight(g)-after administration” value [6, 22] was 22.6 g and the “Inhibition rate (%)” value [6, 22] was 3.8%. The “Tumor weight” value [6, 22] was 2.5 ± 0.42 g, the “Average weight(g)-after administration” value [6, 23] was 22.2 g and the “Inhibition rate (%)” value [6, 23] was 3.8%. The “Tumor weight” value [6, 23] was 2.5 ± 0.38 g, the “Average weight(g)-after administration” value [6, 24] was 23.1 g and the “Inhibition rate (%)” value [6, 24] was 7.6%. The “Tumor weight” value [6, 24] was 2.4 ± 0.36 g, the “inhibitory effect against mouse sarcoma S-180 (in words)” value [6] was “little inhibitory effect” and the “solubility in water (in words)” value [9] was “soluble in water”.
